The values that follow come from patent US10421820B2, “Bruton's tyrosine kinase as anti-cancer drug target” (The Research Foundation for The State University of New York, priority 2008, dated 2019).

Entries after “also recorded” stand apart in the source; their conditions may differ.

The test system of data set [1] is HER2+ breast cancer cells. As to the kind of experiment: Growth factor-driven lapatinib resistance in HER2+ breast cancer cells (NRG, EGF). The format is cell-based, human.
Data set [2] deals with MDA-MB-231 cells. As to the kind of experiment: MDA-MB-231 tail vein metastasis model in NOD/SCID mice. The format is in vivo. The conditions noted are these: 12 mg/kg per day, oral. The method, then: FIG. 24A-24D. […] (24A) 10^6 MDA-MB-231 cells in 100 μl PBS were injected into the tail vein of 4-5 week old female NOD/SCID mice (Jackson Labs). Injected animals were randomly assigned to control or experimental groups. Starting at time of tail vein injection, mice were treated with vehicle or ibrutinib (12 mg/kg per day, oral). At end point, mice were euthanized and bones and organs collected for histological analysis. Note that all bone metastases in control groups led to the development of paralysis (5/16, n=16 per group). […] Thin section of a tumor arising in an untreated control animal.
More specifically, 10^6 MDA-MB-231 (Her2-) cells in 100 μl PBS were injected into the tail vein of 4-5 week old female NOD/SCID mice (Jackson Labs). Injected animals were randomly assigned to control or experimental groups. Starting at time of tail vein injection, mice were treated with vehicle or ibrutinib (12 mg/kg per day, oral). At end point, mice were euthanized then bones and organs collected for histological analysis. Note that bone metastases in control groups led to the development of paralysis (5/16, n=16 per group).

Data set [3] relates to SKBR3 xenograft. As to the kind of experiment: SKBR3 xenograft tumor growth in NOD/SCID mice (mammary fat pad injection). The format is in vivo. The conditions noted are these: 12 mg/kg, day 28, p<0.01.
For data set [4], the system named is MCF-7 and MDA-MB-361 cell lines. As to the kind of experiment: 2-NBDG glucose uptake in breast cancer cell lines. The format is cell-based, human. Conditions: breast cancer cell lines that express BTK-C; LFM-A13 for 24 hours. As to the method:
(§1) FIG. 15A-15D. BTK-C promotes glucose uptake. […] Immunofluorescence pictures were taken in INCELL-1000; (15d) Fluorescence intensity was quantified in right. […] (15a) The effect of BTK-C on glucose uptake in breast cancer cell lines. MCF-7 and MDA-MB-361 cell lines were treated as in (15c). (15b) Fluorescence intensity shown at right panel, *p<0.01.

Data set [5] concerns MCF-10A cells over-expressing BTK-C. The conditions noted are these: 35 μM LFM-A13 for 24.
Data set [6] relates to BT474 cells. As to the kind of experiment: Cleaved caspase-3 apoptosis assay in BT474 cells. The format is cell-based, human. The method, then:
For high-throughput experiments, cells grown on 96-well plates were washed once with 1×PBS, fixed with 2.5% formaldehyde and stained with Hoechst 33342 (Molecular Probes-Invitrogen). Cell images were acquired using an In Cell Analyzer 1000 (GE Healthcare) high content imaging system, with a 20× objective. At least 50 fields were imaged per single experiment. Cell counts and statistics were then performed using the In Cell Investigator 3.4 high-content image analysis software (GE Healthcare). Apoptosis was detected by cleaved Caspase-3 after 48 h to 96 h of shRNA treatments. […] Control cells were treated with DMSO. For the cleaved caspase-3 assay, cells were fixed after treatment with 2.5% formaldehyde, washed with 1×PBS, permeabilized with 0.1% Triton-X 100 (Fisher Chemicals), blocked with 3% normal goat serum (Sigma-Aldrich), incubated with a 1:50-1:200 dilution of the primary antibody, washed with 1×PBS, incubated with a 1:800 dilution of the secondary antibody, washed again with 1×PBS and finally stained with Hoechst 33342 (Molecular Probes-Invitrogen). Cells were imaged by the In Cell Analyzer 1000 (GE Healthcare) or by a Leica TCS SP5 confocal microscope system (Leica Microsystems). At least 500 cells were counted for cleaved Caspase-3. […]

The test system of data set [7] is 10A-BTK-C cells. As to the kind of experiment: 2-NBDG glucose uptake in MCF-10A cells over-expressing BTK-C. The format is cell-based, human. Conditions: LFM-A13 for 24 hours. As to the method: as §1
For data set [8], the system named is BTK-A and BTK-C proteins. As to the kind of experiment: BTK Tyr223 auto-phosphorylation, anti-Flag IP and Western blot in BT474 cells over-expressing BTK-A-flag or BTK-C-flag. The format is cell-based, human. A general note: Immunoblotting shows a protein as a band on a membrane.
In data set [9] the test system is HER2, AKT and ERK phosphorylation. As to the kind of experiment: Immunoblots of HER2, AKT and ERK phosphorylation in SKbr3 cells with or without EGF. The format is cell-based, human. The conditions noted are these: 1 μM, EGF 50 ng/ml, 3 hours.
The test system of data set [10] is SK-Br-3 Her2/neu positive breast cancer cells. As to the kind of experiment: SKBR3 cell number after 72 hours with or without EGF. The format is cell-based, human. Conditions: 50 ng/ml EGF.
Data set [11] relates to BTK-C-flag protein. As to the kind of experiment: BTK-C-flag protein knockdown by immunoblot in HEK 293T cells with BTK-C specific siRNAs. The format is cell-based, human. Conditions: transfected HEK 293T cells. The method, then:
(§2) FIG. 12A-12D. The BTK-C gene produces an 80 kD product. (12a) A schematic representation showing the domains of the BTK-A and predicted BTK-C protein. (12b) Total lysate from breast lines and Namalwa B-cells subjected to immunoblotting and probed with an anti-BTK antibody (BD Transduction Laboratory, 611116). (12c) HEK293 cells co-transfected with a BTK-C flag vector and either BTK-C siRNAs or Non-Target siRNA. Total lysate was prepared 96 hrs post transfection and was used for immunoblotting with anti-Flag antibody. (12d) BT474 cells were transfected with two BTK-C specific siRNAs, non-target siRNA as a control and co-transfected with GFP to mark transfected cells. Transfected cells were counted at 24 h and 96 h and the 96 hr to 24 hr ratio was calculated and expressed as % of the control.

For data set [12], the system named is BT474 cells. As to the kind of experiment: BT474 viability after BTK-C specific siRNAs (GFP-marked cell counts, 96 h to 24 h ratio). The format is cell-based, human. The method, then: as §2

Turning to `C=CC(=O)Nc1cccc(Nc2nc(Nc3ccc(OCCOC)cc3)ncc2F)c1` [AVL-292], in data set [1], the EGFR family activation entry is on record as “has no effect on EGFR family activation”; the “NRG- and EGF-dependent growth factor-driven resistance to lapatinib” value is “prevents NRG- and EGF-dependent growth factor-driven resistance to lapatinib”.
As to `C=CC(=O)N1CCC[C@@H](n2nc(-c3ccc(Oc4ccccc4)cc3)c3c(N)ncnc32)C1` [Ibrutinib], the “decrease of non-lung metastases” value in [2] is given as 3 fold. Further, the “tumor volumes smaller than vehicle control” value in data set [3] was 45%.
On to `C/C(O)=C(\C#N)C(=O)Nc1cc(Br)ccc1Br` [LFM-A13], for which the “glucose uptake (2-NBDG fluorescence)” value is given as “inhibits glucose uptake” in data set [4] and “inhibited” in data set [7]. Also, in [5], the “acquired resistance to Doxorubicin (1 μM)” value is “abolishes the acquired resistance to Doxorubicin”. Besides, the “increase of apoptosis levels compared to control” value in data set [6] (25 uM LFM-A13, BT474 cells) is recorded as 8%; in data set [6] (35 μM LFM-A13, BT474 cells, 48 h), “six fold”. The “phosphorylation of both the BTK-A and BTK-C proteins” value in data set [8] (35 μM LFM-A13 for 48 h) is recorded as “significantly impedes phosphorylation”. Also, the “phosphorylation of BTK-A and BTK-C proteins (pY223)” value in [8] (100 μM LFM-A13 for 45 mins) is listed as “severely impeded phosphorylation; also recorded: reduces phosphorylation of BTK”.
For the compound `CS(=O)(=O)CCNCc1ccc(-c2ccc3ncnc(Nc4ccc(OCc5cccc(F)c5)c(Cl)c4)c3c2)o1` [Lapatinib], the “ERK activation in the presence of EGF” value in data set [9] is reported as “EGF counteracts lapatinib's effect, causing ERK re-activation”. The “effect of EGF treatment on drug activity (cell number)” value in data set [10] was “EGF treatment counteracts lapatinib to a much larger degree than PCI-32765”.
For the compound “siRNA2: BTK-C specific siRNA, sense SEQ ID NO: 68, antisense SEQ ID NO: 69 (sense CAACAAAUGGUUAUUGGAUUU; antisense AUCCAAUAACCAUUUGUUGUU; chemistry not given here; listed as Homo sapiens)”, in [11], the BTK-C-flag protein expression entry was “reduce BTK-C-flag protein expression”. In addition, the “viability of BT474 cells” value in data set [12] is listed as “decrease the viability”.
